Reference: publication PMC5814754, “Quantitative, Wide-Spectrum Kinase Profiling in Live Cells for Assessing the Effect of Cellular ATP on Target Engagement” (Cell Chemical Biology, 2018)
Blank lines part the entries; values can stand above or below the compound they belong to.

Key:
Assay in all cases: Apparent affinity (EC50) of energy transfer probes by titration onto live HEK293 cells expressing kinase/Nluc fusions (Table S1)
Type in all cases: binding
[1] = target: full-length kinase/Nluc fusion proteins (Homo sapiens, UniProt P07333); details: CSF1R, Nluc C; read-out: Probe EC50
[2] = target: full-length kinase/Nluc fusion proteins (Homo sapiens, UniProt P54760); details: EPHB4, Nluc C; read-out: Probe EC50
[3] = target: full-length kinase/Nluc fusion proteins (Homo sapiens, UniProt P09769); details: FGR, Nluc N; read-out: Probe EC50
[4] = target: full-length kinase/Nluc fusion proteins (Homo sapiens, UniProt P10721); details: KIT, Nluc C; read-out: Probe EC50
[5] = target: full-length kinase/Nluc fusion proteins (Homo sapiens, UniProt P42684); details: ABL2, Nluc N; read-out: Probe EC50
[6] = target: full-length kinase/Nluc fusion proteins (Homo sapiens, UniProt Q08345); details: DDR1, Nluc C; read-out: Probe EC50
[7] = target: full-length kinase/Nluc fusion proteins (Homo sapiens, UniProt P00519); details: ABL1, Nluc N; read-out: Probe EC50
[8] = target: full-length kinase/Nluc fusion proteins (Homo sapiens, UniProt P12931); details: SRC (NP_005408), Nluc orientation C; read-out: Probe EC50
[9] = target: full-length kinase/Nluc fusion proteins (Homo sapiens, UniProt O14976); details: GAK, Nluc N; read-out: Probe EC50
[10] = target: full-length kinase/Nluc fusion proteins (Homo sapiens, UniProt Q07912); details: TNK2 (NP_001010938), Nluc orientation C; read-out: Probe EC50
[11] = target: full-length kinase/Nluc fusion proteins (Homo sapiens, UniProt O75385); details: ULK1 (NP_003556), Nluc orientation N; read-out: Probe EC50
[12] = target: full-length kinase/Nluc fusion proteins (Homo sapiens, UniProt Q16620); details: NTRK2, Nluc C; read-out: Probe EC50
[13] = target: full-length kinase/Nluc fusion proteins (Homo sapiens, UniProt P36896); details: ACVR1B, Nluc C; read-out: Probe EC50
[14] = target: full-length kinase/Nluc fusion proteins (Homo sapiens, UniProt Q14164); details: IKBKE, Nluc N; read-out: Probe EC50
[15] = target: full-length kinase/Nluc fusion proteins (Homo sapiens, UniProt P17612); details: PRKACA, Nluc C; read-out: Probe EC50
[16] = target: full-length kinase/Nluc fusion proteins (Homo sapiens, UniProt P29376); details: LTK, Nluc C; read-out: Probe EC50
[17] = target: full-length kinase/Nluc fusion proteins (Homo sapiens, UniProt Q13131); details: PRKAA1, Nluc N; read-out: Probe EC50
[18] = target: full-length kinase/Nluc fusion proteins (Homo sapiens, UniProt Q9Y4K4); details: MAP4K5, Nluc C; read-out: Probe EC50
[19] = target: full-length kinase/Nluc fusion proteins (Homo sapiens, UniProt P22455); details: FGFR4, Nluc C; read-out: Probe EC50
[20] = target: full-length kinase/Nluc fusion proteins (Homo sapiens, UniProt P52333); details: JAK3, Nluc C; read-out: Probe EC50
[21] = target: full-length kinase/Nluc fusion proteins (Homo sapiens, UniProt P06213); details: INSR, Nluc C; read-out: Probe EC50
[22] = target: full-length kinase/Nluc fusion proteins (Homo sapiens, UniProt O60285); details: NUAK1, Nluc N; read-out: Probe EC50
[23] = target: full-length kinase/Nluc fusion proteins (Homo sapiens, UniProt P08581); details: MET, Nluc C; read-out: Probe EC50
[24] = target: full-length kinase/Nluc fusion proteins (Homo sapiens, UniProt Q9UM73); details: ALK, Nluc C; read-out: Probe EC50
[25] = target: full-length kinase/Nluc fusion proteins (Homo sapiens, UniProt P16591); details: FER, Nluc C; read-out: Probe EC50
[26] = target: full-length kinase/Nluc fusion proteins (Homo sapiens, UniProt Q15375); details: EPHA7, Nluc C; read-out: Probe EC50
[27] = target: full-length kinase/Nluc fusion proteins (Homo sapiens, UniProt Q8IWQ3); details: BRSK2, Nluc N; read-out: Probe EC50
[28] = target: full-length kinase/Nluc fusion proteins (Homo sapiens, UniProt Q15349); details: RPS6KA2 (NP_001305865), Nluc orientation N; read-out: Probe EC50
[29] = target: full-length kinase/Nluc fusion proteins (Homo sapiens, UniProt O76039); details: CDKL5, Nluc N; read-out: Probe EC50
[30] = target: full-length kinase/Nluc fusion proteins (Homo sapiens, UniProt Q14289); details: PTK2B, Nluc C; read-out: Probe EC50
[31] = target: full-length kinase/Nluc fusion proteins (Homo sapiens, UniProt Q8WU08); details: STK32A (NP_001106195), Nluc orientation N; read-out: Probe EC50
[32] = target: full-length kinase/Nluc fusion proteins (Homo sapiens, UniProt P51817); details: PRKX, Nluc C; read-out: Probe EC50
Sequence of full-length kinase/Nluc fusion proteins (Homo sapiens, UniProt P51817) (P51817 whole entry, the tested form may be a part): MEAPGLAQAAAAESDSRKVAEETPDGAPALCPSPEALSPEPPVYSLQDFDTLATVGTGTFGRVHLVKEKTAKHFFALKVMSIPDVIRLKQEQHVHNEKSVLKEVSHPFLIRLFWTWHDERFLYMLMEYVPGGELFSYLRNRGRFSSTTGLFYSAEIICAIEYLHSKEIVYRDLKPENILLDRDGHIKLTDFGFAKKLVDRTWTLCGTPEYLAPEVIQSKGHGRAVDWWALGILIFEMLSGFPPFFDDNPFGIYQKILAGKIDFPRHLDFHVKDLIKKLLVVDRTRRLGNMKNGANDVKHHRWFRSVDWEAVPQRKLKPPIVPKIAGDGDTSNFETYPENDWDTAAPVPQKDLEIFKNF

Sequence of full-length kinase/Nluc fusion proteins (Homo sapiens, UniProt O60285) (O60285 whole entry, the tested form may be a part): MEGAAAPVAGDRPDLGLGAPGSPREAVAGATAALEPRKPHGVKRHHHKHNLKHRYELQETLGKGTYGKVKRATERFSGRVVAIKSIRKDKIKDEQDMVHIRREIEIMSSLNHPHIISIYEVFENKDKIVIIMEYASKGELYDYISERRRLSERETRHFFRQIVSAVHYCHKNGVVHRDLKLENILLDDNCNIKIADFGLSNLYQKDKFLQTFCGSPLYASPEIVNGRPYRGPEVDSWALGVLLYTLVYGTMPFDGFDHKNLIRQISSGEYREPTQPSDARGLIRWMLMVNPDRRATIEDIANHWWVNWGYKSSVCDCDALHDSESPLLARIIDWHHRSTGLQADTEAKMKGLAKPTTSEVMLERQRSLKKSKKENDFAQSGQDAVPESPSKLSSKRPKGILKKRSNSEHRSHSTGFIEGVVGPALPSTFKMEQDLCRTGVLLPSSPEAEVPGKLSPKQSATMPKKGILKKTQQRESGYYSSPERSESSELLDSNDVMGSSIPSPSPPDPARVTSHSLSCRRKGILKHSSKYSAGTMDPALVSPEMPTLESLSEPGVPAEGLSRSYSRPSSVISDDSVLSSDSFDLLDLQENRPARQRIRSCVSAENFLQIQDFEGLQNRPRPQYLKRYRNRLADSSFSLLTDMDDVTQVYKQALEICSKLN
Sequence of full-length kinase/Nluc fusion proteins (Homo sapiens, UniProt P52333) (P52333 whole entry, the tested form may be a part): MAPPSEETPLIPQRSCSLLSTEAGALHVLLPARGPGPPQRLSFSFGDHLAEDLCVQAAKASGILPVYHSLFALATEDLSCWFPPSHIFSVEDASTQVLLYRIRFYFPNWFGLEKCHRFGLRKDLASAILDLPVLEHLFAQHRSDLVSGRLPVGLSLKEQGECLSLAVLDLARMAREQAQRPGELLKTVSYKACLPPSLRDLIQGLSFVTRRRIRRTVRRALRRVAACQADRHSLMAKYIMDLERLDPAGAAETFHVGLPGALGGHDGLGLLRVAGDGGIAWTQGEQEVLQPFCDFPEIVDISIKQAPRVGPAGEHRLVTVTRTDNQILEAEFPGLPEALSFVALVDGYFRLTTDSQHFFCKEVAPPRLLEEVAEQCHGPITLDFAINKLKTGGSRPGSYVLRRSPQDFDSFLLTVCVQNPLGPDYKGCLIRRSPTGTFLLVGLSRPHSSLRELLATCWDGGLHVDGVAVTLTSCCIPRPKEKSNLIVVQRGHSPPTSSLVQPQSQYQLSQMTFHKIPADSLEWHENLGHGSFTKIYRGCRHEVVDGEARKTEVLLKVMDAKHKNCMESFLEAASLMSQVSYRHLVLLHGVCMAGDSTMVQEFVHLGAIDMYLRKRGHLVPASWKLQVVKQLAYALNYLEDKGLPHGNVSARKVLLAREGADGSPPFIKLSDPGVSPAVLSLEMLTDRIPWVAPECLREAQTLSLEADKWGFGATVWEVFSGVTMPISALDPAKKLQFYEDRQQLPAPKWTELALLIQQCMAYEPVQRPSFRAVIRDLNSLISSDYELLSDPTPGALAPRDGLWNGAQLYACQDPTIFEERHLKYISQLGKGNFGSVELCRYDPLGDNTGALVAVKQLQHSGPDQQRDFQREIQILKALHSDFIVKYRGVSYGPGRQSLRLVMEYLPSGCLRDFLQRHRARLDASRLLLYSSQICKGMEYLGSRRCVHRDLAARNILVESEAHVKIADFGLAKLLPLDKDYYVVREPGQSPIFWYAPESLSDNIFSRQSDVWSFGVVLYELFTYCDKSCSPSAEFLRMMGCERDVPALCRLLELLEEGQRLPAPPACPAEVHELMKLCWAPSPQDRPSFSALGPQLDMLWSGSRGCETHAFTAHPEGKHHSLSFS
Sequence of full-length kinase/Nluc fusion proteins (Homo sapiens, UniProt Q9Y4K4) (Q9Y4K4 whole entry, the tested form may be a part): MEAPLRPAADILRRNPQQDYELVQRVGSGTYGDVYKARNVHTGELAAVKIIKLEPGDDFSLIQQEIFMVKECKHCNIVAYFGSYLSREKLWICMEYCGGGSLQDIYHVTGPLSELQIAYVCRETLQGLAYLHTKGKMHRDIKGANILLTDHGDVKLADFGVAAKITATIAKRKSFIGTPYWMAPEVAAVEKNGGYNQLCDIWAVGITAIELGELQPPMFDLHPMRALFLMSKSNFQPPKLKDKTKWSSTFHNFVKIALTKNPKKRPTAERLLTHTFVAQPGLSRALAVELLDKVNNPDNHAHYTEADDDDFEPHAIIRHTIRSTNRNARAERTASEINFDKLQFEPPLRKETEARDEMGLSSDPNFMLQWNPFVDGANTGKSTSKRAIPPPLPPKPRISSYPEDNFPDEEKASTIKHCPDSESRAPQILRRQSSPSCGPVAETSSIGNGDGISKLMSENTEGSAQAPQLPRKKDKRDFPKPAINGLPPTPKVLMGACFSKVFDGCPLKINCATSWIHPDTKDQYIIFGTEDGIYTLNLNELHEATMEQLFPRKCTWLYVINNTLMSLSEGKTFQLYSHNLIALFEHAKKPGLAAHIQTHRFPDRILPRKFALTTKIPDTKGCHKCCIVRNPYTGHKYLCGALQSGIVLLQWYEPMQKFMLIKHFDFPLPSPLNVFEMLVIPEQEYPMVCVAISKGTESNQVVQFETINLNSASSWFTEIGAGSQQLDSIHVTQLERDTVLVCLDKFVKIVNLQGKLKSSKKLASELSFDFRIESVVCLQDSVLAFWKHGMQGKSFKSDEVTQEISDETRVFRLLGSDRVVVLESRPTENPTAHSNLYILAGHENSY
Sequence of full-length kinase/Nluc fusion proteins (Homo sapiens, UniProt P36896) (P36896 24-505): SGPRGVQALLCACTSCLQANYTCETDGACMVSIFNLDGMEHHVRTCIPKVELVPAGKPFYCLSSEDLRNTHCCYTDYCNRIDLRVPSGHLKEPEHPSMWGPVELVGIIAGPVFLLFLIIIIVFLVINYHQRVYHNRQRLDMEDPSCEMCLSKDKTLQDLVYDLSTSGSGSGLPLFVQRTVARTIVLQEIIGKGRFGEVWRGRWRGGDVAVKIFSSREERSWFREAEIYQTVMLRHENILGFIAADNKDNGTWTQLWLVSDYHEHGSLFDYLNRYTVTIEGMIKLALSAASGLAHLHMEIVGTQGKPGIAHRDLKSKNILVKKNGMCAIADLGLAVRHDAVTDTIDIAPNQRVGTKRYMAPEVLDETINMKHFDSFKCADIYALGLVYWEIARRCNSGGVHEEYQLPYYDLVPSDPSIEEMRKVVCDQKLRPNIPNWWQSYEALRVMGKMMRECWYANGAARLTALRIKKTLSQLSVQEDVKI
Sequence of full-length kinase/Nluc fusion proteins (Homo sapiens, UniProt P29376) (P29376 17-864): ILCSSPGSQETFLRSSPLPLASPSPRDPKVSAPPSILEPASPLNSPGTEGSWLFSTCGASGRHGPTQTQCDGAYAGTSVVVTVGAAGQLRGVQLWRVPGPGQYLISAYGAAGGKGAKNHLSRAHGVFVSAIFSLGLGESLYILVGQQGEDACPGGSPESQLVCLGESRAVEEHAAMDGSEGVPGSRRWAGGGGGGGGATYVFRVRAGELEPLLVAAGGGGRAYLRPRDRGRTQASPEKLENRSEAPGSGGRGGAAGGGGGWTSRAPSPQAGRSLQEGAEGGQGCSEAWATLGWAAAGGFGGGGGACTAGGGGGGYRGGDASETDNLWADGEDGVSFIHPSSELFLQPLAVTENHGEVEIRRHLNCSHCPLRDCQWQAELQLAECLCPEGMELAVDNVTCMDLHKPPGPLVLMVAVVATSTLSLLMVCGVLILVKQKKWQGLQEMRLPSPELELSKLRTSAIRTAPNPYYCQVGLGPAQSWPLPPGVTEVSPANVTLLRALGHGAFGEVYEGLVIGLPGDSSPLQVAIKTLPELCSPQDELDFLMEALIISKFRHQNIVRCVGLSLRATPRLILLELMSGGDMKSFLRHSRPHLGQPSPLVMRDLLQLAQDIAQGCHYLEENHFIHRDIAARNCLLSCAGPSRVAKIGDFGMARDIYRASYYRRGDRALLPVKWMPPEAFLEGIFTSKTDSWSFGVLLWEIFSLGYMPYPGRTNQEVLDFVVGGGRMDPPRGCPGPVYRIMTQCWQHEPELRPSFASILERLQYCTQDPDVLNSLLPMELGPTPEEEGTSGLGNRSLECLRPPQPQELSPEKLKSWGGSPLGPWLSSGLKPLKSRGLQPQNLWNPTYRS
Sequence of full-length kinase/Nluc fusion proteins (Homo sapiens, UniProt Q13131) (Q13131 whole entry, the tested form may be a part): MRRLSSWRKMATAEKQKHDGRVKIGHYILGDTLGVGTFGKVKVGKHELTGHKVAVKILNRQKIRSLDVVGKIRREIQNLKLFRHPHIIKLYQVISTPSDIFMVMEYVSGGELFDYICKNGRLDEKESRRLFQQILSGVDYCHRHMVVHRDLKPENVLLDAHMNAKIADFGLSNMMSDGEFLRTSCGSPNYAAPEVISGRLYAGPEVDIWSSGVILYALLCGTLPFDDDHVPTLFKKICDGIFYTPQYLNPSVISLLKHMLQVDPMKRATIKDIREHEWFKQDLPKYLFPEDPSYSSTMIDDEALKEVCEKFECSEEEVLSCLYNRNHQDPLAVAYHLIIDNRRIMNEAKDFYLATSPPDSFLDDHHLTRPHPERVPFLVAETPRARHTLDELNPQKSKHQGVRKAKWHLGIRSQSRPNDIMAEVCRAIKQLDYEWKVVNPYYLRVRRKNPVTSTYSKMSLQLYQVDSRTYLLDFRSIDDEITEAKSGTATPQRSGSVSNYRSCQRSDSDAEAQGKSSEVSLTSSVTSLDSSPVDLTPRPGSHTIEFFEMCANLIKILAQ

- EC50 [1]: 200 nM
- EC50 [2]: 10 nM
- EC50 [3]: 700 nM
- EC50 [4]: 200 nM
- EC50 [5]: 10 nM
- EC50 [6]: 40 nM
- EC50 [7]: 200 nM
- EC50 [8]: 300 nM
- EC50 [9]: 500 nM
- EC50 [10]: 100 nM
Compound: Cc1nc(Nc2ncc(C(=O)Nc3c(C)cccc3Cl)s2)cc(N2CCN(CCOCCNC(=O)CCc3ccc4n3[B-](F)(F)[N+]3=C(c5ccc[nH]5)C=CC3=C4)CC2)n1 [Energy Transfer Probe 6, 2-((6-(4-(2-(2-aminoethoxy)ethyl)piperazin-1-yl)-2-methylpyrimidin-4-yl)amino)-N-(2-chloro-6-methylphenyl)thiazole-5-carboxamide-NanoBRET 590]

- EC50 [11]: > 1000 nM
- EC50 [12]: 500 nM
- EC50 [13]: > 1000 nM
- EC50 [14]: > 1000 nM
- EC50 [15]: > 1000 nM
- EC50 [16]: > 1000 nM
- EC50 [17]: 300 nM
- EC50 [18]: > 1000 nM
- EC50 [19]: > 1000 nM
- EC50 [20]: > 1000 nM
- EC50 [21]: > 1000 nM
- EC50 [22]: 100 nM
- EC50 [23]: 400 nM
- EC50 [24]: > 1000 nM
- EC50 [25]: > 1000 nM
- EC50 [26]: > 1000 nM
- EC50 [27]: > 1000 nM
- EC50 [28]: 600 nM
- EC50 [29]: > 1000 nM
- EC50 [30]: 300 nM
- EC50 [31]: > 1000 nM
- EC50 [32]: > 1000 nM
Compound: CNC(=O)c1ccccc1Nc1nc(Nc2ccc(N3CCN(C(=O)CCOCCOCCOCCOCCNC(=O)CCc4ccc5n4[B-](F)(F)[N+]4=C(c6ccc[nH]6)C=CC4=C5)CC3)cc2)ncc1Cl [Energy Transfer Probe 5, 2-((2-((4-(4-(1-amino-3,6,9,12-tetraoxapentadecan-15-oyl)piperazin-1-yl)phenyl)amino)-5-chloropyrimidin-4-yl)amino)-N-methylbenzamide-NanoBRET 590]
